In US20250115828A1, “INACTIVATING AGENT FOR ENVELOPED VIRUSES” (priority 2022, published 2025):
Like-named read-outs stand apart in the source and are kept apart here.

Assays:
[1] = Critical micelle concentration at 25° C. by pyrene fluorescence intensity ratio I1/I3; type: physicochemical; conditions: ion exchange water
Protocol: A critical micelle concentration of component (a) or (a′) at 25° C. was measured by the method below.
A 1×10^−3 mol/L ethanol solution of pyrene (FUJIFILM Wako Pure Chemical Corporation) was prepared in a brown screw cap tube, and 5 μl of the solution was placed in a screw cap tube (No. 3) and dried with dry air. 5 mL of an aqueous solution of component (a) or (a′) to be measured (prepared with ion exchange water) was added thereto and processed with an ultrasonic cleaner for 15 minutes, and using this, fluorescence spectrum measurements were performed with a fluorescence spectrophotometer (Fluorescence Spectrophotometer F-7000 (manufactured by Hitachi High-Tech Corporation)). Fluorescence intensities I1 and I3 at wavelengths λ1 of 373 nm and λ3 of 384 nm were measured under the measurement conditions below to calculate fluorescence intensity ratio I1/I3.
A graph was prepared on which the horizontal axis plots a concentration of component (a) or (a′) and the vertical axis plots a fluorescence intensity ratio I1/I3, at each concentration, and a surfactant concentration at the midpoint between the maximum value and the minimum value of I1/I3 was taken as the critical micelle concentration.
Excitation wavelength: 339 nm, slit on the excitation side: […], slit on the fluorescence side: […], scanning rate: 60 nm/min, liquid temperature: 25° C., measurement range: 350 to 400 nm

[2] = test system: Influenza A virus (H1N1, A/PR/8/34) ATCC VR-1469; assay: Anti-influenza virus verification test (focus assay on MDCK cells); type: cell-based; conditions: for Evaluation result (Δ LOG (FFU/mL) class) / Minimum inactivation concentration: Influenza virus; for inactivation effect in the presence of hardness components (in words): Table 5: influenza virus, 4 °DH, contact 10 min; for Minimum inactivation concentration: minimum concentration at which Δ LOG (FFU/mL) is 3 or more
[3] = Krafft point measurement with rhodamine 6G; type: physicochemical; conditions: 0.2 mass % in ion exchange water
Protocol: A krafft point of component (a) or (a′) was measured by the method below.
A solution obtained by diluting component (a) or (a′) with ion exchange water to attain a total amount of 5 mL and a concentration of 0.2 mass % was prepared and placed in a glass test tube, and the fluorescent dye rhodamine 6G (FUJIFILM Wako Pure Chemical Corporation) was then added to attain a final concentration of 0.02 mM. After the test tube was placed in an ice bath to condition a temperature at 5° C., the temperature was raised at a temperature rise rate of 0.5° C./min, and a temperature at which the solution emitted fluorescence was taken as the krafft point. Component (a) or (a′) which had emitted fluorescence at 5° C. was considered to have a krafft point of less than 5° C.

[4] = test system: Betacoronavirus 1 (OC43) ATCC VR-1558; assay: Anti-human coronavirus verification test (TCID50 on HCT-8 cells); type: cell-based
[5] = test system: Pseudomonas syringae phage ϕ6 (NBRC 105899); assay: Anti-bacteriophage ϕ6 verification test (plaque assay); type: cell-based; conditions: Bacteriophage Φ6; hardness of water 0 °DH; contact time 10 min; minimum concentration at which Δ LOG (PFU/mL) is 3 or more
[6] = 500 ppm, hardness of water 4 °DH, contact time 10 min
[7] = Human coronavirus, hardness of water 0 °DH, contact time 10 min, […]
[8] = hardness of water 0 °DH, contact time 10 min
[9] = 100 ppm, hardness of water 0 °DH, contact time 0.5 min
[10] = 100 ppm, hardness of water 0 °DH, contact time 1 min
[11] = 100 ppm, hardness of water 0 °DH, contact time 5 min
[12] = 100 ppm, hardness of water 0 °DH, contact time 10 min

| Compound | critical micelle concentration (25° C.) [1] | Evaluation result (Δ LOG (FFU/mL) class) [2, 6] | inactivation effect in the presence of hardness components (in words) ([2]; 500 ppm) | krafft point [3] | Minimum inactivation concentration [4, 7] | Minimum inactivation concentration [5] | Minimum inactivation concentration [2, 8] | Minimum inactivation concentration [4] | Evaluation result (Δ LOG (FFU/mL) class) [2, 9] | Evaluation result (Δ LOG (FFU/mL) class) [2, 10] | Evaluation result (Δ LOG (FFU/mL) class) [2, 11] | Evaluation result (Δ LOG (FFU/mL) class) [2, 12] | inactivation effects on the enveloped virus by short-time contact (in words) ([2]; Table 4: influenza virus, 100 ppm, 0 °DH, contact 0.5 to 10 min, compared to comparative examples 5 and 6) |
| --- | --- | --- | --- | --- | --- | --- | --- | --- | --- | --- | --- | --- | --- |
| CCCCCCCC/C=C\CCCCCCCC(=O)[O-].[K+] [(a′-5), potassium oleate] | 0.0015 mol/L | 1 (a Δ LOG (FFU/mL) of the infectious titers of less than 1) | insufficient inactivation effect |  |  |  |  |  |  |  |  |  |  |
| CCCCCCCCCCCCCCCCOS(=O)(=O)[O-].[Na+] [(a′-3), sodium alkyl sulfate with 16 carbons] | 0.00045 mol/L |  |  | 40 °C | >>2000 ppm | >500 ppm | >500 ppm |  |  |  |  |  |  |
| CCCCC(CC)COC(=O)CC(C(=O)OCC(CC)CCCC)S(=O)(=O)[O-].[Na+] (stereo not shown) [(a′-1), sodium di(2-ethylhexyl)sulfosuccinate] | 0.0028 mol/L |  |  |  |  | 250 ppm | 250 ppm | >250 ppm | 1 (a Δ LOG (FFU/mL) of the infectious titers of less than 1) | 1 (a Δ LOG (FFU/mL) of the infectious titers of less than 1) | 1 (a Δ LOG (FFU/mL) of the infectious titers of less than 1) | 2 (a Δ LOG (FFU/mL) of 1 or more and less than 2) |  |
| sodium di(2-propylheptyl)sulfosuccinate [(a-1)] | 0.00035 mol/L | 4 (a Δ LOG (FFU/mL) of 3 or more) | high inactivation effects |  | 100 ppm | 10 ppm | 50 ppm |  | 4 (a Δ LOG (FFU/mL) of 3 or more) | 4 (a Δ LOG (FFU/mL) of 3 or more) | 4 (a Δ LOG (FFU/mL) of 3 or more) | 4 (a Δ LOG (FFU/mL) of 3 or more) | high inactivation effects |
| CCCCCCCCCCCCOS(=O)(=O)[O-].[Na+] [(a′-4), sodium alkyl sulfate with 12 carbons] | 0.0082 mol/L |  |  |  | >2000 ppm | >500 ppm | >500 ppm |  |  |  |  |  |  |
